Values of other authors as cited in patent US20130164384A1, “METHODS OF TREATING BOWEL DISEASES BY ADMINISTERING A BOWEL CLEANSER AND AN ANTIBIOTIC” (Salix Pharmaceuticals, Ltd., priority 2008, published 2013).
Where two headings read alike, the source gives them in different places.

Conditions: cited from earlier work

CC(=O)Oc1ccc(C(c2ccc(OC(C)=O)cc2)c2ccccn2)cc1 [Bisacodyl]
Time to produce a bowel movement (enemas): about 20 minutes | Time to produce a bowel movement (suppositories): about an hour
